According to PubChem BioAssay AID1918949 (Molecular Pharmacology Branch, DTP, NCI, 2023):
“And” between values parts separate entries of the source, which are not always exact repeats. Identical values can stand only once.

System: K24384-001-R-PDC complex spheroid viability
Assay: Anticancer human tumor K24384-001-R-PDC patient-derived pancreatic adenocarcinoma cell line growth inhibition
Conditions: for viability, T/C: stronger effect = lower value
How it was run: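 Drug combinations with the LSD1 inhibitor iadademstat tested on tumor cells co-cultured as spheroids with endothelial cells and mesenchymal stem cells. Concentrations descended in half-log increments from clinical Cmax or 10 microM.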

[1] = curve of first compound, second compound 0.1 µM
[2] = curve of first compound, second compound 0.316 µM
[3] = curve of first compound, second compound 1 µM
[4] = curve of first compound, second compound 3.16 µM
[5] = curve of first compound, second compound 10 µM
[6] = second compound 0.1 µM, first compound 0.00949 µM
[7] = second compound 0.1 µM, first compound 0.03 µM
[8] = second compound 0.1 µM, first compound 0.0949 µM
[9] = second compound 0.1 µM, first compound 0.3 µM
[10] = second compound 0.316 µM, first compound 0.00949 µM
[11] = second compound 0.316 µM, first compound 0.03 µM
[12] = second compound 0.316 µM, first compound 0.0949 µM
[13] = second compound 0.316 µM, first compound 0.3 µM
[14] = second compound 1 µM, first compound 0.00949 µM
[15] = second compound 1 µM, first compound 0.03 µM
[16] = second compound 1 µM, first compound 0.0949 µM
[17] = second compound 1 µM, first compound 0.3 µM
[18] = second compound 3.16 µM, first compound 0.00949 µM
[19] = second compound 3.16 µM, first compound 0.03 µM
[20] = second compound 3.16 µM, first compound 0.0949 µM
[21] = second compound 3.16 µM, first compound 0.3 µM
[22] = second compound 10 µM, first compound 0.00949 µM
[23] = second compound 10 µM, first compound 0.03 µM
[24] = second compound 10 µM, first compound 0.0949 µM
[25] = second compound 10 µM, first compound 0.3 µM
[26] = second compound 0.1 µM, first compound 0.0316 µM
[27] = second compound 0.1 µM, first compound 0.1 µM
[28] = second compound 0.1 µM, first compound 0.316 µM
[29] = second compound 0.1 µM, first compound 1 µM
[30] = second compound 0.316 µM, first compound 0.0316 µM
[31] = second compound 0.316 µM, first compound 0.1 µM
[32] = second compound 0.316 µM, first compound 0.316 µM
[33] = second compound 0.316 µM, first compound 1 µM
[34] = second compound 1 µM, first compound 0.0316 µM
[35] = second compound 1 µM, first compound 0.1 µM
[36] = second compound 1 µM, first compound 0.316 µM
[37] = second compound 1 µM, first compound 1 µM
[38] = second compound 3.16 µM, first compound 0.0316 µM
[39] = second compound 3.16 µM, first compound 0.1 µM
[40] = second compound 3.16 µM, first compound 0.316 µM
[41] = second compound 3.16 µM, first compound 1 µM
[42] = second compound 10 µM, first compound 0.0316 µM
[43] = second compound 10 µM, first compound 0.1 µM
[44] = second compound 10 µM, first compound 0.316 µM
[45] = second compound 10 µM, first compound 1 µM
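Note: spheroids exposed to agents for seven days before luminescence viability reading.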
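Throughout, for viability, T/C: 100% = DMSO vehicle control viability.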

Compound: Nc1ccccc1NC(=O)c1ccc(CNC(=O)OCc2cccnc2)cc1 + NC1CC1c1ccc(-c2cccc(O)c2)cc1
- IC50 [1]: 430 nM
- IC50 [2]: 389 nM
- IC50 [3]: 358 nM
- IC50 [4]: 328 nM
- IC50 [5]: 312 nM
- viability, T/C [6]: 111%
- viability, T/C [7]: 113%
- viability, T/C [8]: 118%
- viability, T/C [9]: 68.7%
- viability, T/C (second compound 0.1 µM, first compound 0.949 µM): 9.69%
- viability, T/C (second compound 0.1 µM, first compound 3 µM): 0.15%
- viability, T/C [10]: 95.7%
- viability, T/C [11]: 121%
- viability, T/C [12]: 115%
- viability, T/C [13]: 63.1%
- viability, T/C (second compound 0.316 µM, first compound 0.949 µM): 7.2%
- viability, T/C (second compound 0.316 µM, first compound 3 µM): 0.13%
- viability, T/C [14]: 101%
- viability, T/C [15]: 112%
- viability, T/C [16]: 115%
- viability, T/C [17]: 58.6%
- viability, T/C (second compound 1 µM, first compound 0.949 µM): 5.63%
- viability, T/C (second compound 1 µM, first compound 3 µM): 0.16%
- viability, T/C [18]: 96.1%
- viability, T/C [19]: 117%
- viability, T/C [20]: 109%
- viability, T/C [21]: 54%
- viability, T/C (second compound 3.16 µM, first compound 0.949 µM): 3.27%
- viability, T/C (second compound 3.16 µM, first compound 3 µM): 0.11%
- viability, T/C [22]: 101%
- viability, T/C [23]: 110%
- viability, T/C [24]: 95.6%
- viability, T/C [25]: 52.5%
- viability, T/C (second compound 10 µM, first compound 0.949 µM): 3.08%
- viability, T/C (second compound 10 µM, first compound 3 µM): 0.17%

Compound: Nc1ncn(C2CC(O)C(CO)O2)c(=O)n1 (stereo not drawn)
- viability, T/C (compound 0.00316 µM): 98.6% and 96.8%
- viability, T/C (compound 0.01 µM): 88.9% and 94.9%
- viability, T/C (compound 0.0316 µM): 93% and 100%
- viability, T/C (compound 0.1 µM): 84.2% and 77.6%
- viability, T/C (compound 0.316 µM): 75.6% and 75.5%
- viability, T/C (compound 1 µM): 75% and 87.2%
- IC50 (curve of compound): > 1000 nM

Compound: CC(C)c1c(-c2ccccc2)nc2c(C#N)c[nH]n2c1=O
- viability, T/C (compound 0.0316 µM): 89.9% and 82.5%
- viability, T/C (compound 0.1 µM): 88.6% and 104%
- viability, T/C (compound 0.316 µM): 96.9% and 93.2%
- viability, T/C (compound 1 µM): 94.9% and 81.5%
- viability, T/C (compound 3.16 µM): 97.4% and 69.9%
- viability, T/C (compound 10 µM): 104% and 91.6%
- IC50 (curve of compound): > 10000 nM

Compound: Nc1ncn(C2CC(O)C(CO)S2)c(=O)n1 (stereo not drawn) + NC1CC1c1ccc(-c2cccc(O)c2)cc1
- IC50 [1]: > 300 nM
- IC50 [2]: > 300 nM
- IC50 [3]: > 300 nM
- IC50 [4]: > 300 nM
- IC50 [5]: > 300 nM
- viability, T/C (second compound 0.1 µM, first compound 0.000949 µM): 102%
- viability, T/C (second compound 0.1 µM, first compound 0.003 µM): 133%
- viability, T/C [6]: 101%
- viability, T/C [7]: 89.8%
- viability, T/C [8]: 67.3%
- viability, T/C [9]: 54.9%
- viability, T/C (second compound 0.316 µM, first compound 0.000949 µM): 102%
- viability, T/C (second compound 0.316 µM, first compound 0.003 µM): 97.1%
- viability, T/C [10]: 103%
- viability, T/C [11]: 87.1%
- viability, T/C [12]: 72.2%
- viability, T/C [13]: 52.1%
- viability, T/C (second compound 1 µM, first compound 0.000949 µM): 124%
- viability, T/C (second compound 1 µM, first compound 0.003 µM): 110%
- viability, T/C [14]: 99.2%
- viability, T/C [15]: 87.8%
- viability, T/C [16]: 73.1%
- viability, T/C [17]: 50.6%
- viability, T/C (second compound 3.16 µM, first compound 0.000949 µM): 108%
- viability, T/C (second compound 3.16 µM, first compound 0.003 µM): 113%
- viability, T/C [18]: 108%
- viability, T/C [19]: 108%
- viability, T/C [20]: 92.6%
- viability, T/C [21]: 56.2%
- viability, T/C (second compound 10 µM, first compound 0.000949 µM): 136%
- viability, T/C (second compound 10 µM, first compound 0.003 µM): 131%
- viability, T/C [22]: 120%
- viability, T/C [23]: 108%
- viability, T/C [24]: 95.3%
- viability, T/C [25]: 57.2%

Compound: NC1CC1c1ccc(-c2cccc(O)c2)cc1 (stereo not drawn)
- viability, T/C (compound 0.1 µM): 108%
- IC50 (compound alone, run of 02/21/2022): > 10000 nM

Compound: O=C(C=Cc1cccc(S(=O)(=O)Nc2ccccc2)c1)NO
- viability, T/C (compound 0.00949 µM): 120% and 101%
- viability, T/C (compound 0.03 µM): 127% and 112%
- viability, T/C (compound 0.0949 µM): 114% and 105%
- viability, T/C (compound 0.3 µM): 38% and 43.9%
- viability, T/C (compound 0.949 µM): 4.5% and 5.62%
- viability, T/C (compound 3 µM): 0.23% and 0.24%
- IC50 (curve of compound): 250 nM and 268 nM

Compound: CC(C)c1c(-c2ccccc2)nc2c(C#N)c[nH]n2c1=O + NC1CC1c1ccc(-c2cccc(O)c2)cc1
- IC50 [1]: > 10000 nM
- IC50 [2]: > 10000 nM
- IC50 [3]: > 10000 nM
- IC50 [4]: > 10000 nM
- IC50 [5]: > 10000 nM
- viability, T/C [26]: 84%
- viability, T/C [27]: 114%
- viability, T/C [28]: 71%
- viability, T/C [29]: 86.7%
- viability, T/C (second compound 0.1 µM, first compound 3.16 µM): 73.1%
- viability, T/C (second compound 0.1 µM, first compound 10 µM): 76.3%
- viability, T/C [30]: 119%
- viability, T/C [31]: 84.1%
- viability, T/C [32]: 65.9%
- viability, T/C [33]: 86%
- viability, T/C (second compound 0.316 µM, first compound 3.16 µM): 90.8%
- viability, T/C (second compound 0.316 µM, first compound 10 µM): 74.8%
- viability, T/C [34]: 82.3%
- viability, T/C [35]: 62.7%
- viability, T/C [36]: 72.6%
- viability, T/C [37]: 65%
- viability, T/C (second compound 1 µM, first compound 3.16 µM): 70.1%
- viability, T/C (second compound 1 µM, first compound 10 µM): 69.8%
- viability, T/C [38]: 85.5%
- viability, T/C [39]: 79%
- viability, T/C [40]: 91.4%
- viability, T/C [41]: 66.9%
- viability, T/C (second compound 3.16 µM, first compound 3.16 µM): 67.3%
- viability, T/C (second compound 3.16 µM, first compound 10 µM): 72.2%
- viability, T/C [42]: 78.8%
- viability, T/C [43]: 86.2%
- viability, T/C [44]: 84.8%
- viability, T/C [45]: 76.5%
- viability, T/C (second compound 10 µM, first compound 3.16 µM): 70.8%
- viability, T/C (second compound 10 µM, first compound 10 µM): 76.8%

Compound: Nc1ncn(C2CC(O)C(CO)O2)c(=O)n1 (stereo not drawn) + NC1CC1c1ccc(-c2cccc(O)c2)cc1
- IC50 [1]: > 1000 nM
- IC50 [2]: > 1000 nM
- IC50 [3]: > 1000 nM
- IC50 [4]: > 1000 nM
- IC50 [5]: > 1000 nM
- viability, T/C (second compound 0.1 µM, first compound 0.00316 µM): 89.9%
- viability, T/C (second compound 0.1 µM, first compound 0.01 µM): 86.7%
- viability, T/C [26]: 97.5%
- viability, T/C [27]: 80.2%
- viability, T/C [28]: 70.4%
- viability, T/C [29]: 79%
- viability, T/C (second compound 0.316 µM, first compound 0.00316 µM): 78.3%
- viability, T/C (second compound 0.316 µM, first compound 0.01 µM): 98.4%
- viability, T/C [30]: 86.5%
- viability, T/C [31]: 85.3%
- viability, T/C [32]: 78.6%
- viability, T/C [33]: 68.9%
- viability, T/C (second compound 1 µM, first compound 0.00316 µM): 97.8%
- viability, T/C (second compound 1 µM, first compound 0.01 µM): 91.3%
- viability, T/C [34]: 84%
- viability, T/C [35]: 67.9%
- viability, T/C [36]: 72.5%
- viability, T/C [37]: 70.6%
- viability, T/C (second compound 3.16 µM, first compound 0.00316 µM): 88.4%
- viability, T/C (second compound 3.16 µM, first compound 0.01 µM): 88.4%
- viability, T/C [38]: 87.8%
- viability, T/C [39]: 79.2%
- viability, T/C [40]: 80.1%
- viability, T/C [41]: 82.6%
- viability, T/C (second compound 10 µM, first compound 0.00316 µM): 101%
- viability, T/C (second compound 10 µM, first compound 0.01 µM): 97.2%
- viability, T/C [42]: 89.4%
- viability, T/C [43]: 90.3%
- viability, T/C [44]: 77.9%
- viability, T/C [45]: 87.7%
